Experimental findings from patent publication US8618151B2, “Inhibitors of HCV NS5A” (Presidio Pharmaceuticals, Inc., priority 2008, dated 2013) are described below.

Molecules are shown by their SMILES.

This assay relates to HCV genotype 1b replicon. The assay can be described thus: HCV replicon assay (1b_Huh-Luc/Neo-ET cell line, luciferase readout). It is filed as cell-based. The following applies: Hepatitis C virus, Huh-7, 72 h, read-out: Inhibition of HCV genotype 1b. In short, it runs like this:
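Luciferase activity (Bright-Glo) after 72 h compound exposure, in triplicate, measured replicon levels in Huh 7-derived 1b_Huh-Luc/Neo-ET cells. EC50 was fitted from percent-of-control values and determined in repeat runs.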
For the compound `COC(=O)N[C@H](C(=O)N1CCC[C@H]1c1ncc(-c2ccc(N3Cc4cc(-c5cnc([C@@H]6CCCN6C(=O)[C@@H](NC(=O)OC)C(C)C)[nH]5)ccc4C3=O)cc2)[nH]1)C(C)C` [compound 290], the EC50 was less than 1 nM. With `COC(=O)N[C@H](C(=O)N1CCC[C@H]1c1nc(C2CNc3cc(-c4ccc(-c5cnc([C@@H]6CCCN6C(=O)[C@H](NC(=O)OC6CCOCC6)c6ccccc6)[nH]5)cc4)ccc3C2)c[nH]1)C(C)C` (stereo partly shown) [compound 291] the figure was less than 1 nM; with `COC(=O)N[C@H](C(=O)N1CCC[C@H]1c1ncc(-c2ccc3cc(-c4ccc5c(c4)CCc4nc([C@@H]6CCCN6C(=O)[C@@H](NC(=O)OC)C(C)C)[nH]c4-5)ncc3c2)[nH]1)C(C)C` [compound 292], less than 1 nM; with `COC(=O)N[C@H](C(=O)N1CCC[C@H]1c1nc2c([nH]1)-c1ccc(-c3cc4ccc(-c5cnc([C@@H]6CCCN6C(=O)[C@@H](NC(=O)OC)C6CCOCC6)[nH]5)cc4cn3)cc1CC2)C(C)C` [compound 293], less than 1 nM. To `COC(=O)N[C@H](C(=O)N1CCC[C@H]1c1nc2c([nH]1)-c1ccc(-c3cc4ccc(-c5cnc([C@@H]6CCCN6C(=O)[C@H](NC(=O)OC)c6ccccc6)[nH]5)cc4cn3)cc1CC2)C(C)C` [compound 294] belongs less than 1 nM; to `COC(=O)N[C@H](C(=O)N1CCC[C@H]1c1nc2c([nH]1)-c1ccc(-c3cc4ccc(-c5cnc([C@@H]6CCCN6C(=O)[C@H](NC(=O)OC6CCOCC6)c6ccccc6)[nH]5)cc4cn3)cc1CC2)C(C)C` [compound 295], less than 1 nM; to `COC(=O)N[C@H](C(=O)N1CCC[C@H]1c1ncc(-c2ccc3nc(-c4ccc5c(ccc6nc([C@@H]7CCCN7C(=O)[C@@H](NC(=O)OC)C(C)C)[nH]c65)c4)ccc3c2)[nH]1)C(C)C` [compound 296], less than 1 nM. With `COC(=O)N[C@H](C(=O)N1CCC[C@H]1c1nc2ccc3cc(-c4ccc5cc(-c6cnc([C@@H]7CCCN7C(=O)[C@@H](NC(=O)OC)C7CCOCC7)[nH]6)ccc5n4)ccc3c2[nH]1)C(C)C` [compound 297] the figure was less than 1 nM. Turning to `COC(=O)N[C@H](C(=O)N1CCC[C@H]1c1nc2ccc3cc(-c4ccc5cc(-c6cnc([C@@H]7CCCN7C(=O)[C@H](NC(=O)OC)c7ccccc7)[nH]6)ccc5n4)ccc3c2[nH]1)C(C)C` [compound 298], the EC50 is less than 1 nM. As for `COC(=O)N[C@H](C(=O)N1CCC[C@H]1c1nc2ccc3cc(-c4ccc5cc(-c6cnc([C@@H]7CCCN7C(=O)[C@H](NC(=O)OC7CCOCC7)c7ccccc7)[nH]6)ccc5n4)ccc3c2[nH]1)C(C)C` [compound 299], the EC50 was less than 1 nM.
